Experimental findings from patent US12398154B2, “Azaquinazoline pan-KRas inhibitors” (Mirati Therapeutics, Inc., priority 2020, dated 2025) are described below.

One test concerns the target KRas G12C (Homo sapiens, UniProt P01116, G12C). Briefly: biochemical.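 Also: binding to KRas assessed by TR-FRET displacement after one hour incubation at room temperature, potency fitted from percent-of-control values.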
In a further test the target is KRas G12S (Homo sapiens, UniProt P01116, G12S). Briefly: biochemical.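 Also: TR-FRET displacement binding to KRas, read after one hour incubation at room temperature, IC50 from four-parameter fit of percent of control.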
The next test deals with KRas WT (Homo sapiens, UniProt P01116). In words: biochemical.
A further test has as its target KRas G12D (Homo sapiens, UniProt P01116, G12D). Briefly: biochemical.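 Also: TR-FRET displacement binding assay on KRas, read after a one-hour incubation at room temperature, IC50 fitted from percent-of-control values.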
The target of a further test is KRas G12R (Homo sapiens, UniProt P01116, G12R). In words: biochemical.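 Also: TR-FRET displacement assay of compound binding to KRas, read after one hour at room temperature, potency from a four-parameter fit of percent-of-control values.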
A further test concerns the target T1, KRas G13D (Homo sapiens, UniProt P01116, G13D).
T1 construct: Biotinylated KRas (corresponding to amino acids 1-169, produced at Accelegan Inc.); biotin (biotinylated); purchased Accelegan Inc
Briefly: KRas binding assay (TR-FRET displacement).

Another test deals with T2, KRas Q61H (Homo sapiens, UniProt P01116, Q61H).
T2 construct: Biotinylated KRas (corresponding to amino acids 1-169, produced at Accelegan Inc.); biotin (biotinylated); purchased Accelegan Inc
In words: KRas binding assay (TR-FRET displacement). A general note: TR-FRET usually uses a lanthanide donor and a delayed reading to cut background.

The target in a further test is KRas G12A (Homo sapiens, UniProt P01116, G12A). In words: biochemical.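 Also: binding to KRas measured by TR-FRET displacement after one hour at room temperature, IC50 from a four-parameter fit of percent-of-control values.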
Another test has as its target KRas G12V (Homo sapiens, UniProt P01116, G12V). In words: biochemical.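 Also: KRas binding measured by TR-FRET displacement at room temperature, IC50 fitted from percent of control values.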

SMILES strings stand for the structures.

Chain of KRas G12V (P01116 1-169 isoform P01116-2 G12V): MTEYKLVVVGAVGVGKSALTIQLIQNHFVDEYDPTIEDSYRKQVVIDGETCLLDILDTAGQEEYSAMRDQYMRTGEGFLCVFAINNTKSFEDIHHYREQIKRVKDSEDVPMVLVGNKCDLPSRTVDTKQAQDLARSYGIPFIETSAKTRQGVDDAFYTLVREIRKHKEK
Chain of KRas G12S (P01116 1-169 isoform P01116-2 G12S): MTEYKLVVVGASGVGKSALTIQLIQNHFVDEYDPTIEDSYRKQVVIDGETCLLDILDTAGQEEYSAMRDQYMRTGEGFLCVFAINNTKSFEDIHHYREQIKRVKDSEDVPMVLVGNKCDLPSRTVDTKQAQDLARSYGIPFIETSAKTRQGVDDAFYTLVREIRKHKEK
Chain of KRas G12D (P01116 1-169 isoform P01116-2 G12D): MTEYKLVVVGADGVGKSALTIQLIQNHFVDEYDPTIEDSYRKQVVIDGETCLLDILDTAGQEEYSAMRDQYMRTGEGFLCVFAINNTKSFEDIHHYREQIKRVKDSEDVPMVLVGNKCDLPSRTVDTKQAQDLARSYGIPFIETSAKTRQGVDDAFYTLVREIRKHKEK
Chain of KRas G12C (P01116 1-169 isoform P01116-2 G12C): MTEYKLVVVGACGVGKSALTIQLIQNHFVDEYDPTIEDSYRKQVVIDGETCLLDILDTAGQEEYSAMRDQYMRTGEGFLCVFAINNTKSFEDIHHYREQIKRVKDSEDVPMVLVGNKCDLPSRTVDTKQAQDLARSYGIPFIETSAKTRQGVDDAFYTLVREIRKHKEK
Chain of KRas G12A (P01116 1-169 isoform P01116-2 G12A): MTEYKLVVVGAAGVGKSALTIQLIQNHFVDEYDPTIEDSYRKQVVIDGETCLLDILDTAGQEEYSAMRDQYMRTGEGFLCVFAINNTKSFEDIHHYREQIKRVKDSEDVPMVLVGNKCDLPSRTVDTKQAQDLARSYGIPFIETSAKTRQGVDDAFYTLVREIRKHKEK
T2 sequence (P01116 1-169 isoform P01116-2 Q61H): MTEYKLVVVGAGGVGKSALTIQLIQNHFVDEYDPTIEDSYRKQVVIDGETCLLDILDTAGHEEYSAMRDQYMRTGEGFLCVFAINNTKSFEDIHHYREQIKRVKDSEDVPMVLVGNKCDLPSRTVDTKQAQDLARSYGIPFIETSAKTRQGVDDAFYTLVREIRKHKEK
T1 sequence (P01116 1-169 isoform P01116-2 G13D): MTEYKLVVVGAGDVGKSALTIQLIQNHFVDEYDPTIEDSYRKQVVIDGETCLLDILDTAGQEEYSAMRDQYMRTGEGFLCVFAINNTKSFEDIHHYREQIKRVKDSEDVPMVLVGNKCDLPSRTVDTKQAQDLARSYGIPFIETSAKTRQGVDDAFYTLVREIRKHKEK
Chain of KRas G12R (P01116 1-169 isoform P01116-2 G12R): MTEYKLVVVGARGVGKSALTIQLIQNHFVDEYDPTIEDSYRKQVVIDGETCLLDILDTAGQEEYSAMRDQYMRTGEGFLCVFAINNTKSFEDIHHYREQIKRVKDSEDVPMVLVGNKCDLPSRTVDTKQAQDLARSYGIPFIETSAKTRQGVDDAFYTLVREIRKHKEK
Chain of KRas WT (P01116 1-169 isoform P01116-2): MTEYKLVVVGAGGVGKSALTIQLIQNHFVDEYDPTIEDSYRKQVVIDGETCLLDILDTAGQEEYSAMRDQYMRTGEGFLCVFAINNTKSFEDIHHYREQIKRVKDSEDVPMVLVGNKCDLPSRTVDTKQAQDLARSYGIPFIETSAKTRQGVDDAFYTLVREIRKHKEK

With `Nc1cc2n(n1)CCCN(c1nc(OCC34CCCN3CCC4)nc3c(F)c(-c4cccc5cccc(F)c45)ncc13)C2` [Example 78, 5-(8-fluoro-7-(8-fluoronaphthalen-1-yl)-2-((hexahydro-1H-pyrrolizin-7a-yl)methoxy)pyrido[4,3-d]pyrimidin-4-yl)-5,6,7,8-tetrahydro-4H-pyrazolo[1,5-a][1,4]diazepin-2-amine], the IC50 on KRas G12C was 1.26 µM; against KRas G12S it was 1.24 µM; against KRas WT, 2.68 µM; on KRas G12D, 0.677 µM; against KRas G12R, 1.76 µM; on KRas G13D it was 3800 nM. Besides, the IC50 at KRas Q61H was 3300 nM; on KRas G12A it was 2.2 µM; at KRas G12V, 1.53 µM.
As for `Fc1c(-c2cccc3cccc(F)c23)ncc2c(NCc3ccc4[nH]cnc4c3)nc(OCC34CCCN3CCC4)nc12` [Example 80, N-((1H-benzo[d]imidazol-5-yl)methyl)-8-fluoro-7-(8-fluoronaphthalen-1-yl)-2-((hexahydro-1H-pyrrolizin-7a-yl)methoxy)pyrido[4,3-d]pyrimidin-4-amine], the IC50 was 1.25 µM at KRas G12C; 2.57 µM against KRas G12S; 6.84 µM at KRas WT; 29.8 µM against KRas G12D; 1.47 µM against KRas G12R; 6310 nM on KRas G13D. The IC50 at KRas Q61H was found to be 10700 nM; at KRas G12A, 1.58 µM; against KRas G12V, 1.59 µM.
Regarding `OC1CC2CC1CN(c1nc(OCC34CCCN3CCC4)nc3c(F)c(-c4cccc5cccc(F)c45)ncc13)C2` (stereo not drawn) [Example 81, 3-(8-fluoro-7-(8-fluoronaphthalen-1-yl)-2-((hexahydro-1H-pyrrolizin-7a-yl)methoxy)pyrido[4,3-d]pyrimidin 4-yl)-3-azabicyclo[3.2.1]octan-6-ol], the 50% inhibitory concentration (IC50) against KRas G12C was 0.891 µM; against KRas G12S, 0.531 µM; against KRas WT, 0.864 µM; on KRas G12D it was 3.56 µM; against KRas G12R, 1.04 µM; on KRas G13D, 860 nM. Besides, the concentration for half-maximal inhibition (IC50) on KRas Q61H was 1170 nM; against KRas G12A, 0.759 µM; on KRas G12V it was 0.802 µM.
Take `OCC1COCCN(c2nc(OCC34CCCN3CCC4)nc3c(F)c(-c4cccc5cccc(F)c45)ncc23)C1` (stereo not drawn) [Example 83, (4-(8-fluoro-7-(8-fluoronaphthalen-1-yl)-2-((hexahydro-1H-pyrrolizin-7a-yl)methoxy)pyrido[4,3-d]pyrimidin-4-yl)-1,4-oxazepan-6-yl)methanol]: the IC50 stood at 0.509 µM against KRas G12C; 0.703 µM against KRas G12S; 1.2 µM on KRas WT; 0.392 µM against KRas G12D; 0.992 µM at KRas G12R; 1890 nM at KRas G13D. The figures for the IC50 on KRas Q61H, on KRas G12A and on KRas G12V were 1990 nM, 0.735 µM and 0.498 µM, respectively.
Take `Fc1c(-c2cccc3cccc(F)c23)ncc2c(NCCCc3cc[nH]n3)nc(OCC34CCCN3CCC4)nc12` [Example 84, N-(3-(1H-pyrazol-3-yl)propyl)-8-fluoro-7-(8-fluoronaphthalen-1-yl)-2-((hexahydro-1H-pyrrolizin-7a-yl)methoxy)pyrido[4,3-d] pyrimidin-4-amine]: the half-maximal inhibitory concentration (IC50) against KRas G12C turned out to be 0.863 µM; at KRas G12S, 2.07 µM; against KRas WT it was 4.29 µM; against KRas G12D, 12.7 µM; against KRas G12R, 2.5 µM; at KRas G13D it was 5070 nM. In addition, the IC50 at KRas Q61H was found to be 5860 nM; at KRas G12A, 1.65 µM; against KRas G12V, 1.86 µM.
For the compound `OCC12CC(Nc3nc(OCC45CCCN4CCC5)nc4c(F)c(-c5cccc6cccc(F)c56)ncc34)(C1)C2` [Example 85, (3-((8-fluoro-7-(8-fluoronaphthalen-1-yl)-2-((hexahydro-1H-pyrrolizin-7a-yl)methoxy)pyrido[4,3-d]pyrimidin-4-yl)amino)bicyclo[1.1.1]pentan-1-yl)methanol], the IC50 was 2.15 µM on KRas G12C; 4.64 µM against KRas G12S; 4.52 µM against KRas WT; 44 µM against KRas G12D; 2.12 µM against KRas G12R; 4660 nM at KRas G13D. The results for the half-inhibitory concentration (IC50) on KRas Q61H, on KRas G12A and at KRas G12V were 10900 nM, 2.85 µM and 3.7 µM, respectively.
Consider `NC(=O)C1CCCN(c2nc(OCC34CCCN3CCC4)nc3c(F)c(-c4cccc5cccc(F)c45)ncc23)C1` (stereo not drawn) [Example 86, 1-(8-fluoro-7-(8-fluoronaphthalen-1-yl)-2-((hexahydro-1H-pyrrolizin-7a-yl)methoxy)pyrido[4,3-d]pyrimidin-4-yl)piperidine-3-carboxamide], for which the IC50 was 3.08 µM against KRas G12C; 2.39 µM at KRas G12S; 2.41 µM against KRas WT; 6.9 µM on KRas G12D; 8.49 µM at KRas G12R; 3000 nM at KRas G13D. Moreover, the 50% inhibitory concentration (IC50) at KRas Q61H came out at 4780 nM; against KRas G12A, 2.25 µM; on KRas G12V it was 3.1 µM.
Consider `N#CC1CCCN(c2nc(OCC34CCCN3CCC4)nc3c(F)c(-c4cccc5cccc(F)c45)ncc23)CC1` (stereo not drawn) [Example 87, 1-(8-fluoro-7-(8-fluoronaphthalen-1-yl)-2-((hexahydro-1H-pyrrolizin-7a-yl)methoxy)pyrido[4,3-d]pyrimidin-4-yl)azepane-4-carbonitrile], for which the IC50 against KRas G12C came out at 5.94 µM; against KRas G12S it was 10.8 µM; at KRas WT, 6.09 µM; at KRas G12D it was 3.36 µM; against KRas G12R, 11.9 µM; on KRas G13D, 5260 nM. For the same compound, the 50% inhibitory concentration (IC50) came to 9500 nM at KRas Q61H, 7.12 µM at KRas G12A and 3.66 µM at KRas G12V.
For `Cn1cc(CNc2nc(OCC34CCCN3CCC4)nc3c(F)c(-c4cccc5cccc(F)c45)ncc23)ccc1=O` [Example 88, 5-(((8-fluoro-7-(8-fluoronaphthalen-1-yl)-2-((hexahydro-1H-pyrrolizin-7a-yl)methoxy)pyrido[4,3-d]pyrimidin-4-yl)amino)methyl)-methylpyridin-2 (1H)-one], the IC50 is 2.51 µM against KRas G12C; 4.24 µM at KRas G12S; 7.17 µM against KRas WT; 30.7 µM at KRas G12D; 4.37 µM against KRas G12R; 9310 nM on KRas G13D. The IC50 at KRas Q61H turned out to be 14700 nM; against KRas G12A, 1.82 µM; against KRas G12V, 2.18 µM.
As for `O[C@@H]1C[C@H](O)CN(c2nc(OCC34CCCN3CCC4)nc3c(F)c(-c4cccc5cccc(F)c45)ncc23)C1` [Example 89, (3S,5R)-1-(8-fluoro-7-(8-fluoronaphthalen-1-yl)-2-((hexahydro-l H-pyrrolizin-7a-yl)methoxy)pyrido[4,3-d]pyrimidin-4-yl)piperidine-3,5-diol], the IC50 was found to be 1.06 µM against KRas G12C; 1.55 µM at KRas G12S; 1.4 µM against KRas WT; 2.28 µM against KRas G12D; 2.6 µM on KRas G12R; 1810 nM on KRas G13D. Further, the IC50 came out at 3270 nM at KRas Q61H, 1.25 µM on KRas G12A and 1.02 µM on KRas G12V.
Regarding `OC12CC(Nc3nc(OCC45CCCN4CCC5)nc4c(F)c(-c5cccc6cccc(F)c56)ncc34)(C1)C2` [Example 90, 3-((8-fluoro-7-(8-fluoronaphthalen-1-yl)-2-((hexahydro-1H-pyrrolizin-7a-yl)methoxy)pyrido[4,3-d]pyrimidin-4-yl)amino)bicyclo[1.1.1]pentan-1-ol], the 50% inhibitory concentration (IC50) against KRas G12C came to 4.18 µM; on KRas G12S, 6.48 µM; against KRas WT, 7.24 µM; against KRas G12D it was 40.2 µM; at KRas G12R it was 4.19 µM; on KRas G13D it was 8210 nM. The results for the IC50 at KRas Q61H, against KRas G12A and against KRas G12V were 19600 nM, 5.14 µM and 3.47 µM, respectively.
As for `O=C(O)[C@H]1C[C@H](Nc2nc(OCC34CCCN3CCC4)nc3c(F)c(-c4cccc5cccc(F)c45)ncc23)C1` [Example 91, trans-3-((8-fluoro-7-(8-fluoronaphthalen-1-yl)-2-((tetrahydro-1H-pyrrolizin-7a(5H)-yl)methoxy)pyrido[4,3-d]pyrimidin-4-yl)amino)cyclobutane-1-carboxylic acid], the IC50 is 11.3 µM against KRas G12C; 17.9 µM on KRas G12S; 14.1 µM on KRas WT; ≥ 100 µM against KRas G12D; 2.2 µM against KRas G12R; 36600 nM on KRas G13D. The IC50 on KRas Q61H was 31400 nM; against KRas G12A it was 12.7 µM; on KRas G12V, 12.7 µM.
For `Fc1c(-c2cccc3cccc(F)c23)ncc2c(NCc3ncc4cc[nH]c4n3)nc(OCC34CCCN3CCC4)nc12` [Example 92, N-((7H-pyrrolo[2,3-d]pyrimidin-2-yl)methyl)-8-fluoro-7-(8-fluoronaphthalen-1-yl)-2-((hexahydro-1H-pyrrolizin-7a-yl)methoxy)pyrido[4,3-d]pyrimidin-4-amine], the IC50 against KRas G12C was determined as 3.41 µM; on KRas G12S it was 6.87 µM; against KRas WT it was 8.8 µM; against KRas G12D, 20.8 µM; against KRas G12R, 1.98 µM; at KRas G13D, 8560 nM. Further, the IC50 worked out at 17300 nM at KRas Q61H, 6.55 µM on KRas G12A and 1.72 µM against KRas G12V.

In general, IC50 refers to the concentration at which inhibition is half-maximal. Read a low IC50 as greater potency in that assay.
